This is an account of results in paper PMC9542247 (Angewandte Chemie (International Ed. in English), 2022).

Non-standard residues stand in square brackets, D forms with d. Residues, ends and D or L forms follow the SMILES beside them. No end group written: not given here.

For the test, the system named is P450Blt (CYP1251 C3). As to the kind of experiment: Small scale enzymatic cyclisation. Format: biochemical, Micromonospora sp. MW-13. To be noted: for loss of P450Blt cyclisation activity compared to 1: fold reduction versus 1; for P450Blt-catalysed cyclisation, result in words: small scale enzymatic cyclisation, LCMS.

Take `CSCC[C@H](N)C(=O)N[C@@H](CCCNC(=N)N)C(=O)N[C@@H](Cc1ccc(O)cc1)C(=O)N[C@@H](CC(C)C)C(=O)N[C@H](Cc1c[nH]cn1)C(=O)O` [compound 17] (H-MRYL[dH]-OH): the “conversion relative to that of 1” value (relative to 1) is > 10%.
As to MNYLH-OH [compound 6], the “loss of P450Blt cyclisation activity compared to 1” value was “≈ 2 fold”.
With MRYLW [compound 24], the “P450Blt-catalysed cyclisation, result in words” value (“P450Blt-catalysed cyclisation” below) was “very effective”. For the same compound, where the note is “relative to 1”, the “level of cyclisation as fraction of that of 1” value was 2/3.
As for MRYWH-OH [compound 8], the “P450Blt-catalysed cyclisation” value was “almost totally abolished activity”.
MSYDH-OH [compound 7]: the “P450Blt-catalysed cyclisation” value was “no further reduction in cyclisation than for 5 alone”.
In the case of MSYLH-OH [compound 5], the “loss of P450Blt cyclisation activity compared to 1” value was “≈ 6 fold”.
As for RYLH-OH [compound 2], the “P450Blt-catalysed cyclisation” value is reported as “significantly reduced activity”.
Same read-out and setting: then fMRYLH-OH [f-1], with “did not affect cyclisation”.
